From patent US20260207615A1, “FLUOROPYRIDOPYRIMIDINE AND FLUOROQUINAZOLINE DERIVATIES AND METHODS OF USE THEREOF” (Frontier Medicines Corporation, priority 2022, published 2026)

target: T1, KRAS G12C and cRAF interaction (Homo sapiens, UniProt P01116, C118S/C51S/C80L/G12C); experiment: Inhibition of KRAS G12C and cRAF binding (AlphaScreen); format: biochemical; settings: KRAS G12C (Cys-light, aa 1-169) preloaded with GMPPNP, cRaf RBD (aa 50-131), 2 hours incubation
T1 construct: truncated version comprising amino acids 1-169
T1 sequence (P01116 1-169 isoform P01116-2 G12C/C51S/C80L/C118S): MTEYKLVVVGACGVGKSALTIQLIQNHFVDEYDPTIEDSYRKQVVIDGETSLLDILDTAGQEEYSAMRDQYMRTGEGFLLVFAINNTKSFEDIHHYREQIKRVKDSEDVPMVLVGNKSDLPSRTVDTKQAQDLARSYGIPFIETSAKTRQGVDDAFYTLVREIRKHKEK
Method in brief: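 Biotin-AviTag KRAS G12C (Cys-light C51S/C80L/C118S, aa 1-169, GMPPNP-loaded; 0.5 nM final)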

| Structure (SMILES) | IC50 [nM] |
| --- | --- |
| C=CC(=O)N1CCN(c2nc(OC[C@@H]3CCCN3C)nc3c(F)c(-c4cccc5cccc(Cl)c45)ncc23)CC12COC2 [Example 1, (S)-1-(8-(7-(8-chloronaphthalen-1-yl)-8-fluoro-2-((1-methylpyrrolidin-2-yl)methoxy)pyrido[4,3-d]pyrimidin-4-yl)-2-oxa-5,8-diazaspiro[3.5]nonan-5-yl) prop-2-en-1-one] | 100 to 500 |
| Cc1nccc(/C=C/C(=O)N2CCN(c3nc(OCC45CCCN4CCC5)nc4c(F)c(-c5cccc6ccc(F)c(F)c56)ncc34)CC23COC3)n1 [Example 10, (E)-1-(8-(7-(7,8-difluoronaphthalen-1-yl)-8-fluoro-2-((tetrahydro-1H-pyrrolizin-7a(5H)-yl)methoxy)pyrido[4,3-d]pyrimidin-4-yl)-2-oxa-5,8-diazaspiro[3.5]nonan-5-yl)-3-(2-methylpyrimidin-4-yl) prop-2-en-1-one] | 100 to 500 |
| C=CC(=O)N1[C@@H](C)CN(c2nc(OC[C@@]34CCCN3C[C@H](F)C4)nc3c(F)c(-c4cccc5cccc(Cl)c45)ncc23)CC12COC2 [Example 74] | ≥ 500 |
| C=CC(=O)N1CCN(c2nc(OC[C@@]34CCCN3C[C@H](F)C4)nc3c(F)c(-c4ccc(F)c5sc(N)nc45)c(C(F)(F)F)cc23)C[C@@]12CCOC2 [Example 93] | ≥ 500 |
| C=CC(=O)N1CCN(c2nc(OC[C@@]34CCCN3C[C@H](F)C4)nc3c(F)c(-c4cccc5ccc(F)c(F)c45)ncc23)C[C@]12CCOC2 [Example 81] | ≥ 500 |
| Cc1nccc(/C=C/C(=O)N2CCN(c3nc(OC[C@@]45CCCN4C[C@H](F)C5)nc4c(F)c(-c5cccc6ccc(F)c(F)c56)ncc34)CC23COC3)n1 [Example 5, (E)-1-(8-(7-(7,8-difluoronaphthalen-1-yl)-8-fluoro-2-(((2R,7aS)-2-fluorotetrahydro-1H-pyrrolizin-7a(5H)-yl)methoxy)pyrido[4,3-d]pyrimidin-4-yl)-2-oxa-5,8-diazaspiro[3.5]nonan-5-yl)-3-(2-methylpyrimidin-4-yl) prop-2-en-1-one] | 10 to 100 |
| Cc1cc(/C=C/C(=O)N2CCN(c3nc(OC[C@@]45CCCN4C[C@H](F)C5)nc4c(F)c(-c5cccc(Cl)c5C5CC5)ncc34)CC23COC3)nc(C)n1 [Example 28, (E)-1-(8-(7-(3-chloro-2-cyclopropylphenyl)-8-fluoro-2-(((2R,7aS)-2-fluorotetrahydro-1H-pyrrolizin-7a(5H)-yl)methoxy)pyrido[4,3-d]pyrimidin-4-yl)-2-oxa-5,8-diazaspiro[3.5]nonan-5-yl)-3-(2,6-dimethylpyrimidin-4-yl) prop-2-en-1-one] | ≥ 500 |
| C=CC(=O)N1C(C)CN(c2nc(OC[C@@]34CCCN3C[C@H](F)C4)nc3c(F)c(-c4cccc5cccc(Cl)c45)ncc23)CC12COC2 (stereo partly drawn) [Example 53, 1-(8-(7-(8-chloronaphthalen-1-yl)-8-fluoro-2-(((2R,7aS)-2-fluorotetrahydro-1H-pyrrolizin-7a(5H)-yl)methoxy)pyrido[4,3-d]pyrimidin-4-yl)-6-methyl-2-oxa-5,8-diazaspiro[3.5]nonan-5-yl) prop-2-en-1-one] | 10 to 100 |
| C#Cc1c(F)ccc2cccc(-c3ncc4c(N5CCN(C(=O)/C=C/c6cc(C)nc(C)n6)C6(COC6)C5)nc(OC[C@@]56CCCN5C[C@H](F)C6)nc4c3F)c12 [Example 48, (E)-3-(2,6-dimethylpyrimidin-4-yl)-1-(8-(7-(8-ethynyl-7-fluoronaphthalen-1-yl)-8-fluoro-2-(((2R,7aS)-2-fluorotetrahydro-1H-pyrrolizin-7a(5H)-yl)methoxy)pyrido[4,3-d]pyrimidin-4-yl)-2-oxa-5,8-diazaspiro[3.5]nonan-5-yl) prop-2-en-1-one] | 10 to 100 |
| C=CC(=O)N1CCN(c2nc(OC[C@@]34CCCN3C[C@H](F)C4)nc3c(F)c(-c4n[nH]c5cccc(Cl)c45)ncc23)CC12COC2 [Example 75] | ≥ 500 |

Now from value to compound:

| IC50 [nM] | Structure (SMILES) |
| --- | --- |
| 10 to 100 | C#Cc1c(F)ccc2cccc(-c3ncc4c(N5CCN(C(=O)/C=C/CN6CC[C@@H](OC)C6)C6(COC6)C5)nc(OC[C@@]56CCCN5C[C@H](F)C6)nc4c3F)c12 [Example 43, (E)-1-(8-(7-(8-ethynyl-7-fluoronaphthalen-1-yl)-8-fluoro-2-(((2R,7aS)-2-fluorotetrahydro-1H-pyrrolizin-7a(5H)-yl)methoxy)pyrido[4,3-d]pyrimidin-4-yl)-2-oxa-5,8-diazaspiro[3.5]nonan-5-yl)-4-((R)-3-methoxypyrrolidin-1-yl) but-2-en-1-one] |
| < 10 | O=C(/C=C/CN1[C@@H]2CC[C@H]1COC2)N1CCN(c2nc(OC[C@@]34CCCN3C[C@H](F)C4)nc3c(F)c(-c4cc(O)cc(Cl)c4C4CC4)ncc23)CC12COC2 [Example 29, (E)-4-((1R,5S)-3-oxa-8-azabicyclo[3.2.1]octan-8-yl)-1-(8-(7-(3-chloro-2-cyclopropyl-5-hydroxyphenyl)-8-fluoro-2-(((2R,7aS)-2-fluorotetrahydro-1H-pyrrolizin-7a(5H)-yl)methoxy)pyrido[4,3-d]pyrimidin-4-yl)-2-oxa-5,8-diazaspiro[3.5]nonan-5-yl) but-2-en-1-one] |
| < 10 | C#Cc1c(F)ccc2cccc(-c3ncc4c(N5CCN(C(=O)/C=C/CN6[C@@H]7CC[C@H]6COC7)C6(COC6)C5)nc(OC[C@@]56CCCN5C[C@H](F)C6)nc4c3F)c12 [Example 34, (E)-4-((1R,5S)-3-oxa-8-azabicyclo[3.2.1]octan-8-yl)-1-(8-(7-(8-ethynyl-7-fluoronaphthalen-1-yl)-8-fluoro-2-(((2R,7aS)-2-fluorotetrahydro-1H-pyrrolizin-7a(5H)-yl)methoxy)pyrido[4,3-d]pyrimidin-4-yl)-2-oxa-5,8-diazaspiro[3.5]nonan-5-yl) but-2-en-1-one] |
| < 10 | C=CC(=O)N1CCN(c2nc(OC[C@@]34CCCN3C[C@H](F)C4)nc3c(F)c(-c4cc(O)cc(Cl)c4C4CC4)ncc23)CC12COC2 [Example 31, 1-(8-(7-(3-chloro-2-cyclopropyl-5-hydroxyphenyl)-8-fluoro-2-(((2R,7aS)-2-fluorotetrahydro-1H-pyrrolizin-7a(5H)-yl)methoxy)pyrido[4,3-d]pyrimidin-4-yl)-2-oxa-5,8-diazaspiro[3.5]nonan-5-yl) prop-2-en-1-one] |
| 10 to 100 | C=CC(=O)N1CCN(c2nc(OC[C@@]34CCCN3C[C@H](F)C4)nc3c(F)c(-c4cccc(Cl)c4C(F)(F)F)ncc23)CC12COC2 [Example 39, 1-(8-(7-(3-chloro-2-(trifluoromethyl)phenyl)-8-fluoro-2-(((2R,7aS)-2-fluorotetrahydro-1H-pyrrolizin-7a(5H)-yl)methoxy)pyrido[4,3-d]pyrimidin-4-yl)-2-oxa-5,8-diazaspiro[3.5]nonan-5-yl) prop-2-en-1-one] |
| < 10 | CCc1c(F)ccc2cccc(-c3ncc4c(N5CCN(C(=O)/C(F)=C/c6ccnc(C)n6)C6(COC6)C5)nc(OC[C@@]56CCCN5C[C@H](F)C6)nc4c3F)c12 [Example 62, (Z)-1-(8-(7-(8-ethyl-7-fluoronaphthalen-1-yl)-8-fluoro-2-(((2R,7aS)-2-fluorotetrahydro-1H-pyrrolizin-7a(5H)-yl)methoxy)pyrido[4,3-d]pyrimidin-4-yl)-2-oxa-5,8-diazaspiro[3.5]nonan-5-yl)-2-fluoro-3-(2-methylpyrimidin-4-yl) prop-2-en-1-one] |
| < 10 | C=CC(=O)N1CCN(c2nc(OC[C@@]34CCCN3C[C@H](F)C4)nc3c(F)c(-c4cccc5ccc(F)c(F)c45)ncc23)CC12COC2 [Example 35, 1-(8-(7-(7,8-difluoronaphthalen-1-yl)-8-fluoro-2-(((2R,7aS)-2-fluorotetrahydro-1H-pyrrolizin-7a(5H)-yl)methoxy)pyrido[4,3-d]pyrimidin-4-yl)-2-oxa-5,8-diazaspiro[3.5]nonan-5-yl) prop-2-en-1-one] |
| < 10 | O=C(/C=C/CN1CC2CC(C1)O2)N1CCN(c2nc(OC[C@@]34CCCN3C[C@H](F)C4)nc3c(F)c(-c4cccc5ccc(F)c(F)c45)ncc23)CC12COC2 [Example 20, (E)-4-(6-oxa-3-azabicyclo[3.1.1]heptan-3-yl)-1-(8-(7-(7,8-difluoronaphthalen-1-yl)-8-fluoro-2-(((2R,7aS)-2-fluorotetrahydro-1H-pyrrolizin-7a(5H)-yl)methoxy)pyrido[4,3-d]pyrimidin-4-yl)-2-oxa-5,8-diazaspiro[3.5]nonan-5-yl) but-2-en-1-one] |
| 10 to 100 | C=CC(=O)N1CCN(c2nc(OC[C@@]34CCCN3C[C@H](F)C4)nc3c(F)c(-c4cccc5ccc(F)c(F)c45)ncc23)CC12CCOC2 (stereo partly shown) [Example 82] |
| < 10 | C=CC(=O)N1CCN(c2nc(OC[C@@]34CCCN3C[C@H](F)C4)nc3c(F)c(-c4cccc5ccc(F)c(CC)c45)ncc23)CC12COC2 [Example 45, 1-(8-(7-(8-ethyl-7-fluoronaphthalen-1-yl)-8-fluoro-2-(((2R,7aS)-2-fluorotetrahydro-1H-pyrrolizin-7a(5H)-yl)methoxy)pyrido[4,3-d]pyrimidin-4-yl)-2-oxa-5,8-diazaspiro[3.5]nonan-5-yl) prop-2-en-1-one] |
| < 10 | Cc1nccc(/C=C(\F)C(=O)N2CCN(c3nc(OC[C@@]45CCCN4C[C@H](F)C5)nc4c(F)c(-c5cccc6ccc(F)c(F)c56)ncc34)CC23COC3)n1 [Example 60, (Z)-1-(8-(7-(7,8-difluoronaphthalen-1-yl)-8-fluoro-2-(((2R,7aS)-2-fluorotetrahydro-1H-pyrrolizin-7a(5H)-yl)methoxy)pyrido[4,3-d]pyrimidin-4-yl)-2-oxa-5,8-diazaspiro[3.5]nonan-5-yl)-2-fluoro-3-(2-methylpyrimidin-4-yl) prop-2-en-1-one] |
| < 10 | O=C(/C=C/CN1C[C@H]2C[C@@H]1CO2)N1CCN(c2nc(OC[C@@]34CCCN3C[C@H](F)C4)nc3c(F)c(-c4cccc5ccc(F)c(F)c45)ncc23)CC12COC2 [Example 19, (E)-4-((1R,4R)-2-oxa-5-azabicyclo[2.2.1]heptan-5-yl)-1-(8-(7-(7,8-difluoronaphthalen-1-yl)-8-fluoro-2-(((2R,7aS)-2-fluorotetrahydro-1H-pyrrolizin-7a(5H)-yl)methoxy)pyrido[4,3-d]pyrimidin-4-yl)-2-oxa-5,8-diazaspiro[3.5]nonan-5-yl) but-2-en-1-one] |
